# Reference: patent publication US5707821A, “Identification of phospholipase A2 inhibitors in Aβ peptide-mediated neurodegenerative disease” (priority 1995, dated 1998)
# Assays:
# [1] = system: TNFα release by cultured human cortical microglia; assay: TNF release from LPS-stimulated human cortical microglia; assay type: cell-based
# Description: Cultures of human cortical or hippocampal astrocytes and microglia were prepared using a modification of the procedure described for cortical neurons. Cortical tissue from fetuses of 16 to 20 weeks of gestation was washed 3 times in Ca^2+ /Mg^2+ free Hanks balanced salt solution (CMF HBSS) and then dissociated by repeated pipetting. The solution was brought to a final volume of 80 ml CMF HBSS for approximately 10 ml of tissue. DNase (Sigma) was added to a final concentration of 0.05 mg/ml. 20 ml of the solution was passed through one 100 μm nylon cell strained (Falcon). The cells were then centrifuged for 5 minutes at 200×G in an IEC Clinical Centrifuge and resuspended in a trypsin/EDTA solution (0.05% trypsin+0.53 mM EDTA in HBSS; Gibco) and incubated for 20 minutes at 37°C. (10 ml of trypsin was added per 2-3 ml of tissue). The trypsin was then inactivated by adding (MEM/FBS): Modified Eagle's Medium (MEM) containing 1% glucose, 1 mM sodium pyruvate, 1 mM glutamine, and supplemented with 10% fetal bovine serum (JRH). After adding a final concentration of 0.05 mg/ml DNase the cells were resuspended and then pelleted by centrifugation and resuspended in MEM/FBS. 1.6×10^8 cells were seeded in a T-150 tissue culture flask coated with polyethyleneimine (PEI). (10% PEI (Sigma) was diluted 1:10 in H2 O, filtered through a […] unit and then diluted into 150 mM sodium borate pH 8.5 at 1:100. The flasks were coated overnight at room temperature, washed two times in PBS and coated with 20 ml/flask of MEM/FBS at 37° C. for at least one hour prior to plating cells.) Cultures were maintained in a H2 O-saturated incubator with an atmosphere of 95% air/5% CO2 at 37° C. The culture medium was changed one and four days after plating and the cultures were then left undisturbed for at least one week. After approximately two weeks in vitro, the flasks were gently shaken and floating microglia were collected and centrifuged for 5 minutes at 200×G in an IEC Clinical Centrifuge. The microglia were reseeded in 96 well tissue culture plates at a density of 5,000-40,000 cells/well in 125 μl in MEM/FBS. Astrocyte cultures were prepared by multiple passaging of the established mixed brain cell cultures. Each T-150 was incubated for 3-4 minutes at 37°C. with a trypsin/EDTA solution (see above). The trypsin was then inactivated by adding MEM/FBS. The cells were triturated and then pelleted by centrifugation and resuspended in MEM/FBS. The cells from one T-150 were seeded at a 1:30 to 1:5 dilution in T-150's not coated. Just prior to confluency the cells were repassaged by trypsinization as described above. This process was repeated until the cultures were >98% pure astrocytes.
# The effects of the benzenesulfonamide PLA2 inhibitor AN20606 and the selective cytosolic PLA2 inhibitor arachidonyl trifluoromethyl ketone (AN20579) were examined in cultured human cortical microglia for their selectivity for inhibiting microglia activation mediated by amyloid-βpeptide and lipopolysaccharides (LPS). LPS are a major constituent of the cell wall of gama-negative bacteria and are extensively used for generating inflammatory responses in cultured cells and in vivo.
# human cortical neurons = assay: Compound toxicity to human cortical neurons in absence of Aβ1-40 (alamarBlue, 3 days); assay type: cell-based; details: human, 4320 min
# Description: Cultures of human cortical or hippocampal neurons were prepared using a modification of the procedure described in P. Seubert et al. (1992), Nature 359:325-327. Cortical or hippocampal tissue was dissociated by incubation in a trypsin/EDTA solution (0.05% trypsin +0.53 mM EDTA in HBSS; Gibco) for 20 minutes at 37° C. The trypsin was then inactivated by resuspending the cells in serum-containing medium (MEM/FBS): Modified Eagle's Medium (MEM) containing 1% glucose, 1 mM sodium pyruvate, 1 mM glutamine, and supplemented with 10% fetal bovine serum (Gibco). Cells were then pelleted by centrifugation and resuspended in a chemically-defined medium (MEM/B27): MEM containing B27 supplement (Gibco) in place of FBS. Polyethyleneimine (PEI)-coated 6.4-mm (96-well) dishes were rinsed once with MEM/FBS, and then seeded at 0.75-1.25×10^5 cells per well in 0.1 ml MEM/B27. Cultures were maintained in a H2 O-saturated incubator with an atmosphere of 95% air/5% CO2 at 37° C. The culture medium was exchanged twice weekly.
# The alamarBlue™ assay incorporated a proprietary fluorometric/colorimetric metabolic indicator (Alamar Biosciences, Inc.). Viable cells convert alamarBlue™ from an oxidized (non-fluorescent, blue) form to a reduced (fluorescent, red) form. Assays were performed by replacing the culture media with a 10% alamarBlue™ solution in DMEM (rat cortical cultures) or MEM (human cortical cultures). Reduction of alamarBlue™ was determined spectrofluorometrically using a Millipore Cytofluor 2350 Scanner (excitation, […]; emission, 590 nm) and CytoCalc™ software (Millipore Corporation).
# Human cortical neurons were treated with 50 μM Aβ1-40 and various inhibitors of PLA2 or PLC. Compounds were added at the time of Aβ1-40 treatment at concentrations 390 nM to 100 μM. Compounds were also added to neuronal cultures in the absence of Aβ1-40. Neuronal survival was determined after 3 days of treatment by alamarBlue®. IC50 is the dose of compound that inhibited Aβ-mediated neurotoxicity by 50%. […] Data represents the mean ± SD (n=3). ND, not detected at the concentration range used.
smiles,measurement,setting,value
"CN(C(=O)/C=C/c1ccc(S(C)(=O)=O)cc1)c1ccc(S(=O)(=O)NC2CCCCCC2)cc1 [AN20606, N-cycloheptyl-4-[N-methyl-N-[(E)-3-(4-methylsulfonylphenyl)-2-propenoyl]amino]benzenesulfonamide]",TNF Released,"[1]; 10 ng/ml LPS, inhibitor 20 μM where present",632 ± 211 pg/mL
same,activity at 20 µM,"[1]; Homo sapiens, Microglia, 10 ng/ml LPS + 20 μM inhibitor, read-out: TNF Released, percent in parentheses (relative to LPS alone)",130%
same,"LPS-mediated cytokine release, TNF (in words)",[1]; LPS stimulation,actually enhanced
same,TD10 (concentration giving 10% loss of neuronal survival),human cortical neurons,98 µM
